Experimental data from patent US5952307A, “Basic α-aminoalkylphosphonate derivatives” (priority 1997, dated 1999).
Like-named read-outs stand apart in the source and are kept apart here.

Key:
Assay type in all cases: biochemical
plasmin = molecular target: T1, plasmin (Homo sapiens, UniProt P00747); assay: Inactivation rate of plasmin, incubation method; conditions: Table III; enzyme 0.06-0.5 μM, inhibitor 0.25-42 μM, 9% DMSO, 25° C.; NI = no inhibition
T1 construct: factor Xa, plasmin, and urokinase
Procedure: (§1) Inactivation rates of serine proteases by aryl diesters of peptidyl derivatives of α-aminoalkylphosphonates were measured by the incubation method. An aliquot of inhibitor (25 or 50 μl) in Me2 SO was added to a buffered enzyme solution (0.01-2.3 μM) to initiate the inactivation. Aliquots (50 μl) were withdrawn at various intervals and the residual enzymatic activity was measured. Me2 SO concentration in the reaction mixture was 8-12% (v/v). A 0.1 M HEPES, 0.01 M CaCl2, pH 7.5 buffer was utilized for trypsin and trypsin-like enzymes. A 0.1 M HEPES, 0.5 M NaCl, pH 7.5, was utilized for the other serine proteases. Peptide thioesters or peptide nitroanilides with the appropriate sequences were used as substrates for various serine proteases. All peptide thioesters hydrolysis rates were measured with the assay mixture containing 4,4'-dithiodipyridine {ε324 =19800 M^-1 cm^-1; Grasetti & Murray, Arch. Biochem. Biophys. 1967, 119, 41-48}. Peptide 4-nitroanilide hydrolysis was measured at 410 nm {ε410 =8800 M^-1 cm^-1; Erlanger et al., Arch. Biochem. Biophys. 1961, 95, 271-278}. First order inactivation rate constants (Kobs) were obtained from plots of In vt /vo vs time, and the correlation coefficients were greater then 0.98.
(§2) ^a Enzyme (0.06-0.5 μM) was incubated with the inhibitor (0.25-42
(§3) μM) in 250 μL of the proper buffer containing 9% DMSO at 25°
(§4) C. The final inhibition reaction mixtures are given in the footnote to
(§5) Table 1. Aliquots of 25 μL were withdrawn at various intervals and the
(§6) residual enzymatic activity was measured as described in experimental
(§7) section. The kobs values were calculated from pseudofirst-order
^b Inhibitor concentration of 0.24 mM.

human thrombin = molecular target: T2, human thrombin (Homo sapiens, UniProt P00734); conditions: 25° C., NI = no inhibition
T2 construct: bovine trypsin, human thrombin
Method in brief: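 Irreversible inactivation followed by incubation method at 25 °C: 0.07 μM thrombin with 0.25–42 μM inhibitor in 80 mM Hepes pH 7.5, 428 mM NaCl, 8% DMSO. Residual activity of withdrawn aliquots measured with thioester or 4-nitroanilide substrates; kobs from pseudo-first-order fits.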

bovine trypsin [1] = molecular target: T3, bovine trypsin (Bos taurus, UniProt P00760); assay: Inactivation rate of bovine trypsin, incubation method; conditions: Table III; enzyme 0.06-0.5 μM, inhibitor 0.25-42 μM, 9% DMSO, 25° C.; NI = no inhibition
T3 sequence (P00760 24-246): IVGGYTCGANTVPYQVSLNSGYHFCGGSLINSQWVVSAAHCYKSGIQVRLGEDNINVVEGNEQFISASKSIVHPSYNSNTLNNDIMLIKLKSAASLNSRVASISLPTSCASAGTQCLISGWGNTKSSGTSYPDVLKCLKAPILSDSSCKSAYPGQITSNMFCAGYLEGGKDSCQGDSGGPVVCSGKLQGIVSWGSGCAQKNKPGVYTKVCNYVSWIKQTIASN

mast cell tryptase = mast cell tryptase (Homo sapiens, UniProt Q15661); assay: Inactivation rate of mast cell tryptase, incubation method; conditions: for kobs /[I] mast cell tryptase: 25° C., NI = no inhibition; for kobsd /[I] mast cell tryptase: 0.1M Hepes, 10% glycerol, 10 mM heparin, pH 7.5, 25° C., 7.1% DMSO, NI = no inhibition after 25 min of incubation
Method in brief: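 Incubation method at 25 °C: 0.07 μM tryptase with 20–66 μM inhibitor in Hepes pH 7.5 containing heparin, glycerol and DMSO. Aliquots were withdrawn at intervals for residual activity on Z-Arg-SBzl or Z-Lys-SBzl with DTNB. Pseudo-first-order kobs came from ln(vt/v0) versus time.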

urokinase = urokinase (Homo sapiens, UniProt P00749); assay: Inactivation rate of urokinase, incubation method; conditions: Table III; enzyme 0.06-0.5 μM, inhibitor 0.25-42 μM, 9% DMSO, 25° C.; NI = no inhibition
Procedure: as §1, §2, §3, §4, §5, §6, §7

human granzyme A = molecular target: T4, human granzyme A (Homo sapiens, UniProt P12544); assay: Inactivation rate of human granzyme A, incubation method; conditions: Table I; 0.1M Hepes, 0.01M CaCl2 pH 7.5, 25° C., 7.6% DMSO, substrate Z--Arg--SBzl
T4 sequence (P12544 29-262): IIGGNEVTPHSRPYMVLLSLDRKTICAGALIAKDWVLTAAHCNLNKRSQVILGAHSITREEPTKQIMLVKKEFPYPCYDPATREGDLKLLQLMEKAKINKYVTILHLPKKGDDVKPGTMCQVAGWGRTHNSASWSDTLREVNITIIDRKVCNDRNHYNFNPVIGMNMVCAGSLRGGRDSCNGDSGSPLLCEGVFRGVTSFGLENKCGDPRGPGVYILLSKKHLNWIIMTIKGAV
Method in brief: (§8)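 Inhibitor in DMSO added to enzyme (0.01-2.3 μM) in 0.1 M HEPES, 0.01 M CaCl2, pH 7.5, 25° C (DMSO 7.6% for granzyme A, 7.1% for granzyme K); residual activity on Z-Arg-SBzl with DTNB read at intervals. Kobs from ln vt/vo vs time plots.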

rat granzyme A = assay: Inactivation rate of rat granzyme A, incubation method; conditions: Table I; 0.1M Hepes, 0.01M CaCl2 pH 7.5, 25° C., 7.6% DMSO, substrate Z--Arg--SBzl
Procedure: as §1
^a Inhibition constants were measured in 0.1M Hepes, 0.01M CaCl2
pH 7.5 for trypsin, granzymes A, and K, and in 0.1M Hepes, 10% glycerol,
10 mM heparin, pH 7.5 for mast cell tryptase, and at 25° C. The
reaction mixtures contained 2% DMSO for trypsin, 7.6% for granzyme A, and
7.1% for granzyme K and tryptase. The substrate was Z--Arg--SBzl for
granzymes and trypsin, and Z--Arg--SBzl or Z--Lys--SBzl for tryptase in
the presence of DTNB. The inhibitor # concentration ranged from 0.001 to
^b NI, no inhibition after 25 min of incubation with enzyme.

bovine trypsin [2] = molecular target: T3, bovine trypsin; assay: Inactivation rate of bovine trypsin, incubation method; conditions: for kobsd /[I] bovine trypsin: Table I, 0.1M Hepes, 0.01M CaCl2 pH 7.5, 25° C., 2% DMSO, substrate Z--Arg--SBzl, NI = no inhibition after 25 min; for kobs /[I] bovine trypsin: Table II, 0.13 μM trypsin, 0.25-42 μM inhibitor, 80 mM Hepes pH 7.5, 1 mM CaCl2, 8% DMSO, 25° C., NI = no inhibition
Method in brief: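 Incubation method: trypsin pre-incubated with inhibitor (0.25-42 μM) at 25° C in 80 mM Hepes, 1 mM CaCl2, pH 7.5, 8% DMSO; aliquots withdrawn over time for residual activity on Z-Arg-SBzl thioester with DTNB or 4,4'-dithiodipyridine. Pseudo-first-order kobs from ln vt/vo versus time.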

rat granzyme K = molecular target: T5, rat granzyme K (Rattus norvegicus, UniProt P49864); assay: Inactivation rate of rat granzyme K, incubation method; conditions: Table I; 0.1M Hepes, 0.01M CaCl2 pH 7.5, 25° C., 7.1% DMSO, substrate Z--Arg--SBzl; NI = no inhibition after 25 min of incubation
T5 sequence (P49864 26-258): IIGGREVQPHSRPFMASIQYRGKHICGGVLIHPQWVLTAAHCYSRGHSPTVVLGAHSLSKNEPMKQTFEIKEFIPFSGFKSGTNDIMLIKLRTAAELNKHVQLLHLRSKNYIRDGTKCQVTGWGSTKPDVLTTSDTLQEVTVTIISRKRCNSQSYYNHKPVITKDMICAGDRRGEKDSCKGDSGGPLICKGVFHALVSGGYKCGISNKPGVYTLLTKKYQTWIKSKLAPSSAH
Method in brief: as §8

[3] = Table III, enzyme 0.06-0.5 μM, inhibitor 0.25-42 μM, 9% DMSO
[4] = Table II, 0.07 μM thrombin, 0.25-42 μM inhibitor, 80 mM Hepes pH 7.5, 428 mM NaCl, 8% DMSO
[5] = Table II, 0.07 μM tryptase, 20-66 μM inhibitor, Hepes pH 7.5, heparin, 9% glycerol, 8% DMSO

T1 sequence (P00747 581-810 limits assumed, species assumed): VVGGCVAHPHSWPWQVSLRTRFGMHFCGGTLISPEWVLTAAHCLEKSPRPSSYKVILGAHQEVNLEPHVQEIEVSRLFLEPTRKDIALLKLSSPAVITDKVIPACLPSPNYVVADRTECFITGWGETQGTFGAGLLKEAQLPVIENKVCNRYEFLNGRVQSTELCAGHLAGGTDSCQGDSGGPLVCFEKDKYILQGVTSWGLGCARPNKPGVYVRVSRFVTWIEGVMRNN
T1 sequence (P00747 97-580 partner limits assumed, species assumed): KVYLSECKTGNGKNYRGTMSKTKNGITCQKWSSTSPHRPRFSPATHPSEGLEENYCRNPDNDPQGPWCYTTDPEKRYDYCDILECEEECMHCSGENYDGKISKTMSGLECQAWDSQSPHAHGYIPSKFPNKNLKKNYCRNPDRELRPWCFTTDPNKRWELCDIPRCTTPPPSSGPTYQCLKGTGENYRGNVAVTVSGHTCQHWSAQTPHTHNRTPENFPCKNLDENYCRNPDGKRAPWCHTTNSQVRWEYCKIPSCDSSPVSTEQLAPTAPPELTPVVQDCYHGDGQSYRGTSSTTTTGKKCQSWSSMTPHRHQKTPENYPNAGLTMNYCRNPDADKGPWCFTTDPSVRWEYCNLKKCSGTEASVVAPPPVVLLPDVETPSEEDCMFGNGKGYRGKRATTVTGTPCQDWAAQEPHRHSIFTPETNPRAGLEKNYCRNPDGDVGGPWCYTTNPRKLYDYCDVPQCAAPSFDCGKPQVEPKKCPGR
Chain of mast cell tryptase (Q15661 31-275): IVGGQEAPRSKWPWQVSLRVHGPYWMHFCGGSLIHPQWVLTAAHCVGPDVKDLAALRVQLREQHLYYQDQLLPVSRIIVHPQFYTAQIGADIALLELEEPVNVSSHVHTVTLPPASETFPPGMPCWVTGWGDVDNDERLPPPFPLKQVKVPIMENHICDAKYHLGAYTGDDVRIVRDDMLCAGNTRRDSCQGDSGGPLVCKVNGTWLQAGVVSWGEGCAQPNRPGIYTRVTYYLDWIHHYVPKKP

Molecule	kobs /[I] plasmin (plasmin)	kobs /[I] human thrombin (human thrombin; [3])	kobs /[I] bovine trypsin (bovine trypsin [1])	kobs /[I] mast cell tryptase (mast cell tryptase; [3])	kobs /[I] urokinase (urokinase)	kobsd /[I] human granzyme A (human granzyme A)	kobs /[I] human thrombin (human thrombin; [4])	kobsd /[I] rat granzyme A (rat granzyme A)	kobsd /[I] bovine trypsin (bovine trypsin [2])	kobs /[I] bovine trypsin (bovine trypsin [2])	kobsd /[I] mast cell tryptase (mast cell tryptase; Table I)	kobs /[I] mast cell tryptase (mast cell tryptase; [5])	kobsd /[I] rat granzyme K (rat granzyme K)	% Inh mast cell tryptase (mast cell tryptase; Table I, printed in the kobsd/[I] column)	% Inh mast cell tryptase (mast cell tryptase; Table II, printed in the kobs/[I] column)
CC(C)(C)OC(=O)NC(Cc1ccccc1)C(=O)N1CCCC1C(=O)NC(CCCCN)P(=O)(Oc1ccccc1)Oc1ccccc1 (mixture of isomers) [Boc--D--Phe--Pro--Lys^P (OPh)2]	51 ± 4 M⁻¹ s⁻¹	9,364 ± 110 M^-1 s^-1	28,840 ± 1,800 M^-1 s^-1	68 ± 4 M⁻¹ s⁻¹	38 ± 3 M⁻¹ s⁻¹										
Cl.NCCCCC(NC(=O)[C@@H]1CCCN1C(=O)c1cccc(Oc2ccccc2)c1)P(=O)(Oc1ccccc1)Oc1ccccc1 (stereo partly drawn) [3-Phenoxybenzoyl-Pro--Lys^P (OPh)2, Diphenyl 1-(N-(3-Phenoxybenzoylprolyl)amino)-5-aminopentanephosphonate Hydrochloride]	7.4 ± 0.6 M⁻¹ s⁻¹	1,142 ± 52 M^-1 s^-1	19,380 ± 300 M^-1 s^-1	16 ± 1 M⁻¹ s⁻¹	1.6 ± 0.1 M⁻¹ s⁻¹										
CC(O)C(NC(=O)OCc1ccccc1)C(=O)NC(CCCCN)P(=O)(Oc1ccccc1)Oc1ccccc1 (mixture of isomers) [Cbz--Thr--Lys^P (OPh)2]			230 M⁻¹ s⁻¹	7 ± 1 M⁻¹ s⁻¹	0.7 ± 0.1 M⁻¹ s⁻¹										
NCCCCC(NC(=O)C1CCCN1C(=O)CNS(=O)(=O)Cc1ccccc1)P(=O)(Oc1ccccc1)Oc1ccccc1 (mixture of isomers) [PhCH2 SO2 --Gly--Pro--Lys^P (OPh)2]	13 ± 1 M⁻¹ s⁻¹	649 ± 14 M⁻¹ s⁻¹	12,472 ± 1,400 M^-1 s^-1	24 ± 0 M⁻¹ s⁻¹	39 ± 2 M⁻¹ s⁻¹										
Cl.N=C(N)c1ccc(C(NC(=O)/C=C/c2ccccc2)P(=O)(Oc2ccccc2)Oc2ccccc2)cc1 (stereo not drawn) [trans-Cinnamoyl-(4-AmPhGly)^P (OPh)2, Diphenyl N-(trans-Cinnamoyl)amino(4-amidinophenyl)methanephosphonate Hydrochloride]						400 ± 10 M⁻¹ s⁻¹	20 ± 1 M⁻¹ s⁻¹	340 ± 18 M⁻¹ s⁻¹	110 ± 1 M⁻¹ s⁻¹	110 ± 1 M⁻¹ s⁻¹	0.3 M⁻¹ s⁻¹	0.3 M⁻¹ s⁻¹	3 M⁻¹ s⁻¹		
N=C(N)c1ccc(C(NC(=O)C(Cc2ccccc2)NC(=O)OCc2ccccc2)P(=O)(Oc2ccccc2)Oc2ccccc2)cc1 (mixture of isomers) [Cbz--Phe-(4-AmPhGly)^P (OPh)2]						14 ± 1 M⁻¹ s⁻¹	20 ± 1 M⁻¹ s⁻¹	8 M⁻¹ s⁻¹	17 ± 1 M⁻¹ s⁻¹	17 ± 1 M⁻¹ s⁻¹			13 M⁻¹ s⁻¹	5%	5%
Diphenyl N-(N-Benzyloxycarbonyl)amino(6-aminohexyl)methanephosphonate [Cbz-HomoLys^P (OPh)2]			21 ± 6 M⁻¹ s⁻¹	0.7 M⁻¹ s⁻¹	1.0 ± 0.0 M⁻¹ s⁻¹										
CC(NC(=O)OCc1ccccc1)C(=O)NC(C)C(=O)NC(C)C(=O)NC(c1ccc(C(=N)N)cc1)P(=O)(Oc1ccccc1)Oc1ccccc1 (mixture of isomers) [Cbz--Ala--Ala--Ala-(4-AmPhGly)^P (OPh)2]						730 ± 15 M⁻¹ s⁻¹	1,290 ± 26 M^-1 s^-1	590 ± 17 M⁻¹ s⁻¹	1780 ± 33 M⁻¹ s⁻¹	1,780 ± 33 M^-1 s^-1	2 M⁻¹ s⁻¹	2.0 ± 0.2 M⁻¹ s⁻¹	7 M⁻¹ s⁻¹		
Cl.N=C(N)c1ccc(C(NC(=O)C=Cc2cccs2)P(=O)(Oc2ccccc2)Oc2ccccc2)cc1 (stereo not drawn) [Diphenyl N-(3-(2-Thienyl)acryloyl)amino(4-amidinophenyl)methanephosphonate Hydrochloride]						740 ± 18 M⁻¹ s⁻¹	90 ± 4 M⁻¹ s⁻¹	430 ± 31 M⁻¹ s⁻¹	300 ± 22 M⁻¹ s⁻¹	300 ± 22 M⁻¹ s⁻¹	1 M⁻¹ s⁻¹	1 M⁻¹ s⁻¹	4 M⁻¹ s⁻¹		
NCCCCCC(NC(=O)C1CCCN1C(=O)C(N)Cc1ccccc1)P(=O)(Oc1ccccc1)Oc1ccccc1 (mixture of isomers) [D--Phe--Pro-HomoLys^P (OPh)2]		1,342 ± 272 M^-1 s^-1	164 ± 14 M⁻¹ s⁻¹	4.1 0.2 M^-1 s^-1	7.8 ± 0.0 M⁻¹ s⁻¹										
